Patent US20220162262A1, “NOVEL COMPOUNDS AND THERAPEUTIC USES THEREOF” (priority 2019, published 2022)
Positions of bridges follow the written chain, without caps; N, C: chain ends. Non-standard residues stand in square brackets, D forms with d. Residues, ends and D or L forms follow the SMILES beside them. *: point of attachment. X1 = CC(=O)NC1[C@H](OCCCNC(=O)COc2cc(C(=O)*)cc(-c3ccccc3)c2)OC(CO)[C@@H](O[C@@H]2OC(CO)[C@H](O)[C@H](O[C@H]3OC(CO)[C@H](O)C(O)[C@@H]3O)C2O)[C@@H]1O; X2 = CC(=O)NC1C(O)[C@H](OC2OC(CO)C(O)[C@H](O[C@H]3OC(CO)C(O)C(O)C3O)C2O)C(CO)O[C@H]1OCCCNC(=O)COc1cc(C(=O)*)cc(-c2ccccc2)c1; PEG8 = NCCOCCOCCOCCOCCOCCOCCOCCOCCC(=O)O; Gly(octyl) = CCCCCCCC[C@H](N)C(=O)O; Dab = NCC[C@H](N)C(=O)O; Dap = NC[C@H](N)C(=O)O; Ahx = NCCCCCC(=O)O

Tests used:
Format in all cases: cell-based
[1] = tested on: E. coli K1:018ac:H7 (ATCC 700973); assay: Flow cytometric anti-Gal IgM antibody recruitment assay, E. coli; details: for E. coli recruitment assay, side by side comparison with reference example (FIG. 2): 20 μM, in triplicate, E. coli ATCC 700973
Method: (§1) Flow Cytometric Antibody Recruitment Assay Using an Anti-Galα1-3Galβ1-4GlcNAc (Anti-Gal) Antibody
(§2) A secondary fluorescently labelled anti-IgM antibody was used to detect the anti-Gal antibody binding.
(§3) The assays were carried out in polystyrene 96-well U bottom plates (Costar). Frozen stocks of bacteria in mid-exponential phase were thawed, centrifuged and resuspended in LB broth, Miller (Fisher BP1426-500) at OD595=0.2. The bacteria was grown to mid-exponential phase (OD595=0.4), washed once with Hank's Balanced Salt Solution with calcium and magnesium (HBSS+/+) and then resuspended in HBSS+/+ at a bacterial D595=0.6. Bacteria was diluted ⅙ and placed in the 96-well U bottom plate. The bacteria were then incubated for 45 minutes with the compounds of Example 1-4 and reference compounds A-D (see Table 1) at 20 μM concentrations, Polymyxin B at 20 μM concentrations, or buffer alone (vehicle control), at room temperature and shaking at 450 rpm. The bacteria were then washed three times with 200 μL HBSS+/+, prior to adding 50 μL of the mouse/human chimeric anti-Gal IgM antibody M86 (Absolute Antibody Ab00532) at a final concentration of 25 μg/mL in HBSS+/+. The samples were incubated for 1 hour at room temperature shaking at 450 rpm. The bacteria were washed three times as above, prior to adding 100 μL of a FITC-labeled anti-human IgM secondary antibody (Biolegend 314506) at 10 μg/mL in HBSS+/+ and incubating at room temperature for 1 hour at 450 rpm. After three final washes with 200 μL HBSS+/+, the bacteria were resuspended in 200 μL HBSS+/+ and evaluated for anti-Gal antibody binding on a Cytoflex flow cytometer (Beckman Coulter). 50,000 counts of bacterial particles were sampled and the median fluorescent shift was recorded in the FITC-A channel. Data from all samples were analysed using Kaluza software (Beckman Coulter).
(§4) The fold shift over background was calculated by dividing the Median Fluorescent Intensity (MFI) obtained in the presence of 20 μM of the Example compounds by the MFI value obtained in the vehicle controls, i.e., the absence of Examples. The higher the fold shift over background, the more anti-Gal was bound to the bacterial surface. The shift in fluorescence intensity (FITC) occurs due to the binding event at each end of the molecule.
(§5) The fold shift over background was calculated by dividing the Median Fluorescent Intensity (MFI) obtained in the presence of 20 μM of the Example compounds (10 μM for Reference Example A and Example 2 against P. aeruginosa ATCC 27853, 6 μM for Reference Example A and Example 2 against P. aeruginosa PAO1 ATCC 15692) by the MFI value obtained in the vehicle controls, i.e., the absence of Examples. […] The shift in fluorescence intensity (FITC) occurs due to the binding event at each end of the molecule.

[2] = tested on: K. pneumoniae (NCTC 13465); assay: Flow cytometric anti-Gal IgM antibody recruitment assay, K. pneumoniae; details: for IgM Recruitment (20 μM, Average fold change) K. pneumoniae NCTC 134655: 20 μM compound, anti-Gal M86 IgM, MFI fold shift over vehicle control; for K. pneumoniae recruitment assay, side by side comparison with reference example (FIG. 2): 20 μM, in triplicate
Method: as §1, §2, §3, §4
The fold shift over background was calculated by dividing the Median Fluorescent Intensity (MFI) obtained in the presence of 20 μM of the Example compounds (10 μM for Reference Example A and Example 2 against P. aeruginosa ATCC 27853, 6 μM for Reference Example A and Example 2 against P. aeruginosa PAO1 ATCC 15692) by the MFI value obtained in the vehicle controls, i.e., the absence of Examples. The higher the fold shift over background, the more anti-Gal was bound to the bacterial surface. The shift in fluorescence intensity (FITC) occurs due to the binding event at each end of the molecule.

[3] = tested on: P. aeruginosa (ATCC 27853); assay: Flow cytometric anti-Gal IgM antibody recruitment assay, P. aeruginosa ATCC 27853; details: for IgM Recruitment (20 μM, Average fold change) P. aeruginosa ATCC 27853: 20 μM compound, anti-Gal M86 IgM, MFI fold shift over vehicle control
Method: as §1, §2, §3, §4, §5

Row | Compound | E. coli recruitment assay, side by side comparison with reference example (FIG. 2) [1] | IgM Recruitment (20 μM, Average fold change) K. pneumoniae NCTC 134655 [2] | K. pneumoniae recruitment assay, side by side comparison with reference example (FIG. 2) [2] | IgM Recruitment (20 μM, Average fold change) P. aeruginosa ATCC 27853 [3] | P. aeruginosa recruitment assay, side by side comparison with reference example (FIG. 2C) ([3]; 20 μM, in triplicate) | IgM Recruitment (20 μM, Average fold change) E. coli K1 ATCC700973 ([1]; 20 μM compound, anti-Gal M86 IgM, MFI fold shift over vehicle control)
1 | CCCCCCCC[C@H](NC(=O)CCOCCOCCOCCOCCOCCOCCOCCOCCNC(=O)c1cc(OCC(=O)NCCCO[C@@H]2OC(CO)[C@@H](O[C@@H]3OC(CO)[C@H](O)[C@H](O[C@H]4OC(CO)[C@H](O)C(O)[C@@H]4O)C3O)[C@H](O)C2NC(C)=O)cc(-c2ccccc2)c1)C(=O)N[C@@H](CCN)C(=O)N[C@H](C(=O)N[C@@H](CN)C(=O)N[C@H]1CCNC(=O)[C@H]([C@@H](C)O)NC(=O)[C@H](CCN)NC(=O)[C@H](CCN)NC(=O)[C@H](CC(C)C)NC(=O)[C@@H](Cc2ccccc2)NC(=O)[C@H](CCN)NC1=O)[C@@H](C)O (stereo partly shown) [Example 4] ({X1-PEG8}-[Gly(octyl)][Dab]T[Dap][Dab][Dab][dF]L[Dab][Dab]T; lactam 5-C) | superiority over Reference Example D | 898 (n = 2) fold change | superiority over Reference Example D | – | – | –
2 | CCCCCCCC[C@H](NC(=O)CCCCCNC(=O)CCCCCNC(=O)c1cc(OCC(=O)NCCCO[C@@H]2OC(CO)[C@@H](OC3OC(CO)C(O)[C@H](O[C@H]4OC(CO)C(O)C(O)C4O)C3O)C(O)C2NC(C)=O)cc(-c2ccccc2)c1)C(=O)N[C@@H](CCN)C(=O)N[C@H](C(=O)N[C@@H](CCN)C(=O)N[C@H]1CCNC(=O)[C@H]([C@@H](C)O)NC(=O)[C@H](CCN)NC(=O)[C@H](CCN)NC(=O)[C@H](CC(C)C)NC(=O)[C@@H](Cc2ccccc2)NC(=O)[C@H](CCN)NC1=O)[C@@H](C)O (stereo partly shown) [Example 1] ({X2-Ahx-Ahx}-[Gly(octyl)][Dab]T[Dab][Dab][Dab][dF]L[Dab][Dab]T; lactam 5-C) | superiority over Reference Example B | – | – | 391 (n = 2) fold change | – | –
3 | CCCCCCCC[C@H](NC(=O)CCOCCOCCOCCOCCOCCOCCOCCOCCNC(=O)c1cc(OCC(=O)NCCCO[C@@H]2OC(CO)[C@@H](O[C@@H]3OC(CO)[C@H](O)[C@H](O[C@H]4OC(CO)[C@H](O)C(O)[C@@H]4O)C3O)[C@H](O)C2NC(C)=O)cc(-c2ccccc2)c1)C(=O)N[C@@H](CCN)C(=O)N[C@H](C(=O)N[C@H](CO)C(=O)N[C@H]1CCNC(=O)[C@H]([C@@H](C)O)NC(=O)[C@H](CCN)NC(=O)[C@H](CCN)NC(=O)[C@H](CC(C)C)NC(=O)[C@@H](Cc2ccccc2)NC(=O)[C@H](CCN)NC1=O)[C@@H](C)O (stereo partly shown) [Example 3] ({X1-PEG8}-[Gly(octyl)][Dab]T[dS][Dab][Dab][dF]L[Dab][Dab]T; lactam 5-C) | superiority over Reference Example C | 1015 (n = 4) fold change | superiority over Reference Example C | 1491 (n = 4) fold change | superiority over Reference Example C | –
4 | Polymyxin B [PMB, reference compound] | – | 1 (n = 2) fold change | – | 1 (n = 5) fold change | – | 1 (n = 5) fold change
